In article PMC10202811 (Nature Medicine, 2023):
“And” between values parts separate entries of the source, which are not always exact repeats. Identical values can stand only once. “Also recorded” adds a separate entry of the source.

Legend:
[1] = test system: ALK-driven refractory or relapsed neuroblastoma; test: Functional imaging response: MIBG Curie score / FDG-PET avidity; type: in vivo, human; set-up: key to Symbol to indicate Soft tissue became MIBG non-avid: *: Symbol to indicate Soft tissue became MIBG non-avid; settings: for complete resolution of MIBG avidity (CR) in bone and/or soft tissue: patients with BOR of SD/MR/PR
From the text: Patients underwent disease staging at baseline, after courses 2 and 4 and then every four courses thereafter. The primary endpoint for response analysis is the BOR, defined as the best response observed before progression or start of another therapy. […] Response was graded according to the NANT response criteria version 2.0 (ref. [26]), modified from the International Neuroblastoma Response Criteria (INRC)[48]. NANT response criteria use three components for assessment of overall response: soft tissue response assessed by anatomical imaging and avidity on MIBG or FDG-PET; bone response assessed by uptake in bone by MIBG or bone involvement on FDG-PET; and bone marrow response assessed by morphology on bilateral aspirates and biopsies. Each response component (soft tissue, bone and bone marrow) are graded as CR, PR, SD and PD. Overall response grading is defined as: CR, if a response of CR in all components that are involved at baseline; PR, if a response of PR or better in all involved components; MR, if a response of PR or better but with at least one involved component as SD and no PD in all involved components; SD, if a response of SD in all involved components; and PD, if a response of PD in at least one involved component. The overall response definitions are identical to overall responses (CR, PR, SD and PD) as defined by the INRC. Response assessment is initially performed by sites and reviewed against source documents by NANT operations. Additional blinded central review of all radiological or pathological data was conducted for patients with overall PR or better and, in addition, radiologic pathological data of all involved sites for patients with MR to assign the final BOR on this study. Response by MIBG was determined using the Curie criteria. RR was determined as the proportion of patients with BOR of CR and PR in each cohort. Based on an international consensus by the National Cancer Institute Clinical Trials Planning Committee to refine tumor site eligibility criteria and evaluation of disease response for early-phase clinical trials in children with high-risk recurrent, refractory and progressive neuroblastoma, we also performed an ad hoc analysis to determine a modified RR that includes the proportion of patients with BOR of CR, PR and MR.

[2] = test system: ALK-driven refractory or relapsed neuroblastoma; test: Progression-free survival and overall survival (Kaplan-Meier) by cohort; type: in vivo, human; settings: individual patients (PID); for PFS status: source data of Figure 3; for PFS time, years since on study: time is censored where PFS status is No event; for OS time, years since on study: time is censored where vital status is Alive
From the text: Supplement 41591_2023_2297_MOESM8_ESM.xlsx, sheet "Figure 3" | column: PFS status; PFS time, years since on study; Vital status; OS time, years since on study

C[C@H]1Oc2cc(cnc2N)-c2c(nn(C)c2C#N)CN(C)C(=O)c2ccc(F)cc21 [Lorlatinib, (10R)-7-amino-12-fluoro-2,10,16-trimethyl-15-oxo-10,15,16,17-tetrahydro-2H-8,4-(metheno)pyrazolo[4,3-h][2,5,11]-benzoxadiazacyclotetradecine-3-carbonitrile]
responders achieving MIBG complete responses ([1]; 13 of 27 responders, all cohorts): 48%
MIBG Curie Score % change from baseline ([1]; Cohort A1, individual patient): -87% and -94% and -100% and 600% and 50% and 40% and 33% and -10% and -18% and -70%
Symbol to indicate Soft tissue became MIBG non-avid ([1]; Cohort A1, individual patient): *
MIBG Curie Score % change from baseline ([1]; Cohort A2, individual patient): -4.76% and -25% and -44% and -56% and -67% and -95% and -100%
Symbol to indicate Soft tissue became MIBG non-avid ([1]; Cohort A2, individual patient): *
MIBG Curie Score % change from baseline ([1]; Cohort B2, individual patient): 100% and 56% and 1% and -33% and -73% and -75% and -100%
Symbol to indicate Soft tissue became MIBG non-avid ([1]; Cohort B2, individual patient): *
Curie Score Percent Change ([1]; Patient ID 2): -100
Minimum Curie ([1]; Patient ID 2, Enrollment Curie 5): 0
Curie Score Percent Change ([1]; Patient ID 3): -94.44
Minimum Curie ([1]; Patient ID 3, Enrollment Curie 18): 1
Curie Score Percent Change ([1]; Patient ID 9): -10
Minimum Curie ([1]; Patient ID 9, Enrollment Curie 10): 9
Curie Score Percent Change ([1]; Patient ID 10): 50
Minimum Curie ([1]; Patient ID 10, Enrollment Curie 4): 6
Curie Score Percent Change ([1]; Patient ID 11): -100
Minimum Curie ([1]; Patient ID 11, Enrollment Curie 1): 0
Curie Score Percent Change ([1]; Patient ID 12): 33.33
Minimum Curie ([1]; Patient ID 12, Enrollment Curie 6): 8
Curie Score Percent Change ([1]; Patient ID 17): -86.66
Minimum Curie ([1]; Patient ID 17, Enrollment Curie 15): 2
Curie Score Percent Change ([1]; Patient ID 21): -100
Minimum Curie ([1]; Patient ID 21, Enrollment Curie 3): 0
Curie Score Percent Change ([1]; Patient ID 25): -100
Minimum Curie ([1]; Patient ID 25, Enrollment Curie 2): 0
Curie Score Percent Change ([1]; Patient ID 26): -18.18
Minimum Curie ([1]; Patient ID 26, Enrollment Curie 11): 9
Curie Score Percent Change ([1]; Patient ID 30): 40
Minimum Curie ([1]; Patient ID 30, Enrollment Curie 5): 7
Curie Score Percent Change ([1]; Patient ID 31): -100
Minimum Curie ([1]; Patient ID 31, Enrollment Curie 3): 0
Curie Score Percent Change ([1]; Patient ID 32): 600
Minimum Curie ([1]; Patient ID 32, Enrollment Curie 2): 14
Curie Score Percent Change ([1]; Patient ID 38): -100
Minimum Curie ([1]; Patient ID 38, Enrollment Curie 3): 0
Curie Score Percent Change ([1]; Patient ID 40): -70
Minimum Curie ([1]; Patient ID 40, Enrollment Curie 10): 3
complete resolution of MIBG avidity (CR) in bone and/or soft tissue ([1]; A1, five of eight): 63%
complete resolution of MIBG avidity (CR) in bone and/or soft tissue ([1]; A2, three of ten): 30%
complete resolution of MIBG avidity (CR) in bone and/or soft tissue ([1]; B2, one of four): 25%
complete resolution of metabolic activity in soft tissue lesions by MIBG/FDG-PET ([1]; ten of 22 patients with avid soft tissue lesions and BOR of SD/MR/PR): 45%
Vital status ([2]; cohort A1): Alive; also recorded: Deceased
PFS status ([2]; cohort A1): No event; also recorded: Relapsed/Deceased
PFS time, years since on study ([2]; cohort A1): 3.67 years and 0.13 years and 2.37 years and 0.10 years and 1.50 years and 0.08 years and 3.43 years and 0.31 years and 0.0657 years and 1.07 years and 1.17 years and 0.15 years and 0.30 years and 4.15 years and 0.28 years and 0.11 years and 0.16 years
OS time, years since on study ([2]; cohort A1): 3.67 years and 0.74 years and 3.43 years and 0.10 years and 1.50 years and 0.40 years and 0.36 years and 0.32 years and 0.39 years and 0.16 years and 2.28 years and 1.68 years and 0.20 years and 1.46 years and 1.11 years and 0.48 years and 0.56 years and 0.37 years and 4.15 years and 0.65 years and 0.63 years
Vital status ([2]; cohort A2): Alive; also recorded: Deceased
PFS status ([2]; cohort A2): No event; also recorded: Relapsed/Deceased
PFS time, years since on study ([2]; cohort A2): 4.39 years and 0.15 years and 0.82 years and 1.03 years and 0.80 years and 2.07 years and 0.89 years and 0.77 years and 0.32 years and 2.48 years and 2.24 years and 1.46 years and 1.34 years and 0.93 years and 0.73 years
OS time, years since on study ([2]; cohort A2): 4.39 years and 0.51 years and 1.86 years and 1.14 years and 1.78 years and 3.47 years and 0.89 years and 1.27 years and 1.10 years and 2.48 years and 2.24 years and 1.46 years and 1.34 years and 0.93 years and 0.73 years
Vital status ([2]; cohort B2): Deceased; also recorded: Alive
PFS status ([2]; cohort B2): Relapsed/Deceased; also recorded: No event
PFS time, years since on study ([2]; cohort B2): 0.50 years and 0.66 years and 0.13 years and 0.45 years and 1.28 years and 0.06 years and 0.44 years and 0.70 years and 0.16 years
OS time, years since on study ([2]; cohort B2): 1.16 years and 0.66 years and 0.41 years and 0.79 years and 1.28 years and 0.22 years and 0.44 years and 0.70 years and 0.54 years
